# Source: patent publication US20220127297A1, “Novel Antibacterial 3"-Derivatives Of 4,6-Disubstituted 2,5-Dideoxystreptamine Aminoglycoside Antibiotics” (AGILeBiotics B.V., priority 2018, published 2022)
# Assays:
# [1] = test system: E. coli ATCC BAA-1025 (= BL 21); experiment: MIC 90, broth micro-dilution, ATCC strains; type: cell-based, Escherichia coli
# Source text: (§1) 3.3 Protocol for MIC Determination (ATCC Strains)
# (§2) Tested reference compounds. Amikacin sulfate (Cat. No. 01693, Chem-Impex), Gentamicin sulfate (Cat. No. G4918, Sigma Aldrich), Azithromycin (Cat. No. 1046056, USP), Ceftazidime Pentahydrate (Cat. No. 1098130, USP), Ciprofloxacin (Cat. No. 1134313, USP), Meropenem (Cat. No. 1392454, USP), Rifampicin (Cat. No. R0079, TCI), Tobramycin (Cat. No. 1667508, USP), Vancomycin (Cat. No. 1709007 USP).
# (§3) Microbial strains. Staphylococcus aureus ATCC 29213, Staphylococcus aureus ATCC BAA-1717, Escherichia coli ATCC BAA-1025, Klebsiella pneumoniae ATCC BAA-1705, Klebsiella pneumoniae ATCC BAA-2524, Pseudomonas aeruginosa ATCC 27853, Pseudomonas aeruginosa ATCC BAA-2108, Acinetobacter baumannii ATCC BAA-1800.
# (§4) Culture media and equipment. BBL™ Mueller Hinton Broth (REF 275730, Lot. 7009699, Becton Dickinson), Mueller Hinton Agar 2 (Ref. No. 97580-500G-F, Lot. No. BCBV4646, Sigma), Dulbecco's Modified Eagle's Medium (DMEM) (Cat. No. 41966-029, Gibco), Minimum Essential Medium (MEM) (Cat. No. 42360-024, Gibco), Fetal bovine serum (FBS) (Cat. No. F7524, Sigma), Non-essential amino acids (NEAA) (100×, Cat. No. 11140-035, Gibco), Sodium Pyruvate (100 mM, 100×, Cat. No. 11360-039, Gibco), Staurosporine (Cat. No. B50188, Biotrend), Cellstar 96-well plates U-bottom (Cat. No. 650180, Lot. No. E14123EB, Greiner Bio-one), CellTiter-Glo (Cat. No. G7573, Promega), 96-well plate V-bottom (Cat. No. 651201, Greiner), 96-well clear plate, U-bottom, (Cat. No. 650180, Greiner), 96-well white plate with clear bottom (Cat. No. 655098, Greiner), 96-well deep well plate 1 mL (Cat. No. 278606, Nunc), Sodium Pyruvate (100 mM, 100×, Gibco, Cat #11360-039), Incubator (Binder), Laminar flow (Thermo Scientific), BioPhotometer (Eppendorf); DEN-1B (McFarland Densitometer, Biosan); McFarland standards (polymer microparticle suspension, Biosan).
# (§5) Compound preparation. The test compounds and reference antibiotics were prepared according to CLSI guidelines (Clinical and Laboratory Standards Institute (CLSI); Methods for dilution antimicrobial susceptibility tests for bacteria that grow aerobically; approved standard—ninth edition, M07-A9, Vol. 32, No. 2, 2012) as 5 mg/mL stock solutions in DMSO. Out of these DMSO solutions, 43.5 μL was transferred to 1656.5 μL of MH media in a deep well plate. Out of these working solutions 100 μL was transferred to wells in the third column of 96-well plates. Plates were previously filled with 50 μL of MH media in all wells except for the wells in the third column. After compound and antibiotic addition, 50 μL was transferred from the third to the fourth column, then from the fourth to the fifth and so on. In this manner, the compounds and antibiotics were plated in 96-well plate in serial two-fold dilutions giving a final concentration range of 64-0.125 μg/mL.
# (§6) Preparation of microorganisms. Designations used for clinical isolates were from the Fidelta strain collection bank. Microorganisms used were all revived from skim milk storage at −70° C. by plating them on MH agar plates. The following day the single colony of each microorganism was again streaked on fresh agar plates. The next day, using the direct colony suspension method, broth solutions that achieve turbidity equivalent to 0.5 McFarland standard for each microorganism were prepared. […] Out of these suspensions, actual inoculums were prepared by diluting them 100× with MH media giving a final microorganism count of 2-8×10^5 CFU/mL. For each strain of microorganisms, 20 mL of these inoculum solutions were prepared. From the second to the twelfth column of 96-well plates, 50 μL of these solutions were transferred per well. To the first column, 50 μL per well of pure growth media was added. In this manner the first column was used as sterility control of media, the second column was used as control of microorganism's growth and the rest of the plate was used for MIC determination. All plates were incubated for 16-24 h at 37° C. […]
# P. aeruginosa ATCC 27853 = experiment: MIC 90, broth micro-dilution, ATCC strains; type: cell-based, Pseudomonas aeruginosa
# Source text: as §1, §2, §3, §4, §5, §6
# S. aureus ATCC 29213 = experiment: MIC 90, broth micro-dilution, ATCC strains; type: cell-based, Staphylococcus aureus
# Source text: as §1, §2, §3, §4, §5, §6
# [2] = test system: A. baumannii ATCC BAA-1800; experiment: MIC 90, resistant ATCC strains of the ESKAPE panel; type: cell-based; details: Acinetobacter baumannii, ATCCBAA1800, MDR
# Source text: as §1, §2, §3, §4, §5, §6
# [3] = test system: K. pneumoniae ATCC BAA-1705; experiment: MIC 90, resistant ATCC strains of the ESKAPE panel; type: cell-based; details: Klebsiella pneumoniae, ATCCBAA1705, KPC
# Source text: as §1, §2, §3, §4, §5, §6
# [4] = test system: K. pneumoniae ATCC BAA-2524; experiment: MIC 90, resistant ATCC strains of the ESKAPE panel; type: cell-based; details: Klebsiella pneumoniae, ATCCBAA2524, OXA-48
# Source text: as §1, §2, §3, §4, §5, §6
# [5] = test system: P. aeruginosa ATCC BAA-2108; experiment: MIC 90, resistant ATCC strains of the ESKAPE panel; type: cell-based; details: Pseudomonas aeruginosa, ATCCBAA2108, MDR
# Source text: as §1, §2, §3, §4, §5, §6
# S. aureus ATCC BAA-1717 = experiment: MIC 90, resistant ATCC strains of the ESKAPE panel; type: cell-based; details: Staphylococcus aureus, MRSA
# Source text: as §1, §2, §3, §4, §5, §6
Compound,MIC90 [1],MIC90 (P. aeruginosa ATCC 27853),MIC90 (S. aureus ATCC 29213),MIC90 [2],MIC90 [3],MIC90 [4],MIC90 [5],MIC90 (S. aureus ATCC BAA-1717)
"NCC[C@H](O)C(=O)N[C@@H]1CC(N)[C@@H](O[C@H]2OC(CN)[C@@H](O)CC2N)[C@H](O)C1OC1O[C@H](CO)[C@@H](O)C(N)[C@H]1O (stereo partly shown) [ABX5004, Tobra-AHB]",2 µmol/L,4 µmol/L,1 µmol/L,–,–,–,–,–
"NCC[C@H](O)C(=O)N[C@@H]1CC(N)[C@@H](O[C@H]2OC(CN)[C@@H](O)[C@@H](O)C2N)[C@H](F)C1OC1O[C@H](CO)[C@@H](O)C(N)[C@H]1O (stereo partly drawn) [ABX4003, 3′Epi-KanaB-AHB-F]",4 µmol/L,8 µmol/L,4 µmol/L,–,–,–,–,–
"N=C(N)N[C@@H]1[C@@H](O)[C@@H](O[C@@H]2[C@@H](O)[C@H](O[C@H]3O[C@H](CN)[C@@H](O)[C@@H](O)[C@H]3N)[C@@H](N)C[C@H]2NC(=O)[C@@H](O)CCN)O[C@H](CO)[C@H]1O [ABX4005, 3′Epi-KanaB-AHB-Gua]",8 µmol/L,4 µmol/L,2 µmol/L,–,–,–,–,–
"CNCCNC(=N)NC1[C@@H](O)C(OC2[C@@H](F)[C@H](O[C@H]3OC(CN)[C@@H](O)CC3N)C(N)C[C@H]2NC(=O)[C@@H](O)CCN)O[C@H](CO)[C@H]1O (stereo partly shown) [ABX5038, Tobra-AHB-F-Gua 2-(methylamino)ethyl]",–,–,–,32 µg/mL,8 µg/mL,0.5 µg/mL,4 µg/mL,0.5 µg/mL
"N=C(N)NC1[C@@H](O)C(OC2[C@@H](F)[C@H](O[C@H]3OC(CN)[C@@H](O)[C@H](O)C3N)C(N)C[C@H]2NC(=O)[C@@H](O)CCN)O[C@H](CO)[C@H]1O (stereo partly shown) [ABX4006, KanaB-AHB-F-Gua]",–,–,–,16 µg/mL,2 µg/mL,< 0.125 µg/mL,16 µg/mL,4 µg/mL
"N=C(NCCO)NC1[C@@H](O)C(OC2[C@@H](F)[C@H](O[C@H]3OC(CN)[C@@H](O)CC3N)C(N)C[C@H]2NC(=O)[C@@H](O)CCN)O[C@H](CO)[C@H]1O (stereo partly shown) [ABX5029, Tobra-AHB-F-Gua 2-hydroxy-ethyl]",–,–,–,16 µg/mL,4 µg/mL,0.25 µg/mL,4 µg/mL,0.5 µg/mL
"N=C(NC[C@H]1CCNC1)NC1[C@@H](O)C(OC2[C@@H](F)[C@H](O[C@H]3OC(CN)[C@@H](O)CC3N)C(N)C[C@H]2NC(=O)[C@@H](O)CCN)O[C@H](CO)[C@H]1O (stereo partly drawn) [ABX5042, Tobra-AHB-F-Gua (S) pyrrolidine-3-ylmethyl]",–,–,–,32 µg/mL,4 µg/mL,0.5 µg/mL,8 µg/mL,0.5 µg/mL
"NCC[C@H](O)C(=O)N[C@@H]1C[C@H](N)[C@@H](O[C@H]2O[C@H](CN)[C@@H](O)[C@@H](O)[C@H]2O)[C@H](O)[C@H]1O[C@H]1O[C@H](CO)[C@@H](O)[C@H](N)[C@H]1O [ABX3002, 3′Epi-KanaA-AHB]",32 µmol/L,32 µmol/L,16 µmol/L,–,–,–,–,–
"N=C(NC[C@@H]1CNCCO1)NC1[C@@H](O)C(OC2[C@@H](F)[C@H](O[C@H]3OC(CN)[C@@H](O)CC3N)C(N)C[C@H]2NC(=O)[C@@H](O)CCN)O[C@H](CO)[C@H]1O (stereo partly drawn) [ABX5040, Tobra-AHB-F-Gua (S) morpholin-2-yl methyl]",–,–,–,32 µg/mL,8 µg/mL,0.5 µg/mL,8 µg/mL,0.5 µg/mL
